Reference: the supplement of paper PMC10307832

Experiments:
Test in all cases: relative viability (nuclei count vs DMSO), 5 days (fraction); higher = more cells survive
[1] = compound: N=C1NC(=O)/C(=C/c2ccc(O)cc2)S1 [Mirin] + COc1cc2c(Oc3ccc(NC(=O)C4(C(=O)Nc5ccc(F)cc5)CC4)cc3F)ccnc2cc1OCCCN1CCOCC1 [Foretinib] (partner 0.25 µM)
Outline: (§1)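 After 5 days of treatment, lung cancer cells in 1536-well plates were fixed and stained in a single step (final 0.05% Triton X-100, 1% formaldehyde, 1 ug/ml Hoechst) and their nuclei counted on 4× images. Treatment had been applied by pin tool the day after seeding as one drug alone or as a fixed anchor-drug dose with five library-drug doses (not always all listed) in √10 steps. Relative viability is the nuclei count of treated wells divided by that of vehicle wells, and values are medians of duplicate plates.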

[2] = compound: CCC1=CN=CN=C1N2CCN(CC2)CC3=NC4=C(N3)C=C(C=C4)C(F)(F)F + Nc1nc2[nH]cc(CCc3ccc(C(=O)N[C@@H](CCC(=O)O)C(=O)O)cc3)c2c(=O)[nH]1 [Pemetrexed] (partner 0.2 µM)
Outline: as §1

[3] = compound: N=C1NC(=O)/C(=C/c2ccc(O)cc2)S1 [Mirin] + Cc1nc(Nc2ncc(C(=O)Nc3c(C)cccc3Cl)s2)cc(N2CCN(CCO)CC2)n1 [Dasatinib] (partner 0.075 µM)
Outline: as §1

[4] = compound: CCn1c(-c2nonc2N)nc2cnc(Oc3cccc(NC(=O)c4ccc(OCCN5CCOCC5)cc4)c3)cc21 + NC(=O)Nc1cc(-c2cccc(F)c2)sc1C(=O)N[C@H]1CCCNC1 [AZD7762] (partner 0.2 µM)
Outline: as §1

Cell Line | relative viability ([1]; first compound 0.25 µM) | relative viability ([1]; first compound 0.7906 µM) | relative viability ([1]; first compound 2.5 µM) | relative viability ([1]; first compound 7.906 µM) | relative viability ([1]; first compound 25 µM) | relative viability ([2]; first compound 0.04 µM) | relative viability ([2]; first compound 0.1265 µM) | relative viability ([2]; first compound 0.4 µM) | relative viability ([2]; first compound 1.265 µM) | relative viability ([2]; first compound 4 µM) | relative viability ([3]; first compound 0.25 µM) | relative viability ([3]; first compound 0.7906 µM) | relative viability ([3]; first compound 2.5 µM) | relative viability ([3]; first compound 7.906 µM) | relative viability ([3]; first compound 25 µM) | relative viability ([4]; first compound 0.04 µM) | relative viability ([4]; first compound 0.1265 µM) | relative viability ([4]; first compound 0.4 µM) | relative viability ([4]; first compound 1.265 µM) | relative viability ([4]; first compound 4 µM)
NCI-H3122 | 0.919 | 0.906 | 0.934 | 1.08 | 1.09 | 0.21 | 0.184 | 0.202 | 0.203 | 0.215 | 0.892 | 0.419 | 0.807 | 0.685 | 0.665 | 1.06 | 0.984 | 0.939 | 0.871 | 0.739
NCI-H2126 | 1.35 | 1.02 | 1.31 | 1.16 | 1.13 | 0.75 | 0.695 | 0.725 | 0.657 | 0.709 | 0.631 | 0.58 | 0.601 | 0.517 | 0.514 | 1.07 | 0.998 | 0.832 | 0.924 | 0.839
LOU-NH91 | 0.937 | 0.987 | 0.935 | 0.93 | 1.16 | 0.377 | 0.318 | 0.378 | 0.348 | 0.379 | 0.549 | 0.564 | 0.535 | 0.477 | 0.65 | 0.782 | 0.631 | 0.421 | 0.432 | 0.424
NCI-H1651 | 0.814 | 0.845 | 0.773 | 0.678 | 0.69 | 0.616 | 0.627 | 0.684 | 0.59 | 0.728 | 0.417 | 0.382 | 0.501 | 0.355 | 0.376 | 0.566 | 0.477 | 0.373 | 0.146 | 0.282
NCI-H460 | 1.08 | 1.04 | 0.999 | 1.04 | 1.08 | 0.0519 | 0.0632 | 0.0612 | 0.0661 | 0.0611 | 0.566 | 0.487 | 0.468 | 0.457 | 0.38 | 0.712 | 0.465 | 0.148 | 0.0565 | 0.0732
